Tests used:
[1] = test system: hRAS1 (DNA, G4) TCGGGTTGCGGGCGCAGGGCACGGGCG; assay: CD melting; conditions: K+ 100 mM; 10 mM Tris, pH 7.4; G4 15 μM; TPE-B : G4 1:1
[2] = test system: ODN-51 (DNA, G4) TAGGGTTAGGGTTAGGGTTAGGG; assay: ESI-MS; conditions: K+ 1 mM; 100 mM TMAA, 50% methanol; 20 μM strand
[3] = test system: hRAS1 (DNA, G4) TCGGGTTGCGGGCGCAGGGCACGGGCG; assay: ESI-MS; conditions: K+ 1 mM; 100 mM TMAA, 50% methanol; 20 μM strand
[4] = test system: NRAS (RNA, G4) UGUGGGAGGGGCGGGUCUGGG; assay: CD melting; conditions: K+ 100 mM; 10 mM Tris, pH 7.4; NRAS 5 μM; TPE-B : G4 1:1

- ΔTm [1]: 0.07 °C
- binding [2]: weak
- binding [3]: weak
- ΔTm [4]: 13.51 °C
Structure (SMILES): CN(C)c1cc[n+](CCCCOc2ccc(C(=C(c3ccc(OCCCC[n+]4ccc(N(C)C)cc4)cc3)c3ccc(OCCCC[n+]4ccc(N(C)C)cc4)cc3)c3ccc(OCCCC[n+]4ccc(N(C)C)cc4)cc3)cc2)cc1
